Laboratory results as given in paper PMC7053711, “A G protein–coupled receptor mediates neuropeptide-induced oocyte maturation in the jellyfish Clytia” (PLoS Biology, 2020).
Peptide text beside a SMILES is read from it.

Columns and labels:
[1] = test system: fully grown oocytes isolated from WT gonads; assay: Oocyte maturation assay, wild-type isolated oocytes (GVBD); format: cell-based, Clytia hemisphaerica; conditions: for Oocyte maturation (number) / Percentage of Oocytes maturing: 0,1uM WPRPa, wild type
Description: Fig 4 Oocyte maturation failure in MIHR mutant medusae. Oocyte maturation assays performed using isolated gonads (A, B) or isolated oocytes (C) from MIHR mutant jellyfish compared to WT. In A and C, bar heights represent mean percentages of 3 independent experiments and error bars show standard deviations. Total gonad or oocyte numbers for each treatment are indicated in gray. (A) Spawning response of isolated gonads from WT and n5-23 female medusae. Three treatments were compared as indicated above each panel: Light: light stimulation after incubation in the dark; MIH: treatment of light-maintained gonads with 100 nM WPRPamide; cAMP: treatment of light-maintained gonads with 4 mM Br-cAMP. […] Full datasets from three independent experiments are available in S3 Data. (B) Light microscope images illustrating gonads from an equivalent experiment performed with n5-13 female MIHR mutant medusae 120 minutes after the indicated treatments. Scale bar: 500 μm. […] Full datasets from 3 independent experiments are available in S3 Data. Br-cAMP, bromoadenosine 3′,5′-cyclic monophosphate; cAMP, cyclic adenosine monophosphate; KO, knockout; MIH, maturation-inducing hormone; MIHR, MIH receptor; WT, wild-type.
Fully grown oocytes were isolated manually from dissected gonads of wild-type and MIHR KO mutant jellyfish prepared as above. Maturation assays were performed in wells of 96-well plates or small plastic petri dishes lined with 2% agarose in MFSW. Spontaneous maturation occurs at a low frequency in control oocytes. To test MIH-induced maturation, 10 μL WPRPamide from 1 μM solution in MFSW was added to a final concentration of 100 nM. In some experiments, Br-cAMP from a 20 mM stock in H2O was used at a final concentration of 4 mM. GVBD was scored at 30 minutes, every 5 minutes, depending on experiments.
Supplementary file pbio.3000614.s013.xlsx: S3 Data Numerical data corresponding to Fig 4A and 4C. The first tab collects all the raw data from 3 independent gonad spawning assays. Information corresponding to the Fisher exact tests is also shown. […] The means and standard deviations were used to prepare the graph in Fig 4C. Information corresponding to the Fisher exact tests is also shown. (XLSX) Click here for additional data file.

Clytia MIHR = assay: Dose–response curves of Clytia MIHR, luminescence (CHO-K1 cells, Gα-16, GFP-apoaequorin); format: cell-based, Clytia hemisphaerica; design: key to Span (best-fit value) / Bottom (best-fit value): % activation, normalized to fitted upper plateau (100%); conditions: for EC50: four-parameter fit, variable slope, triplicate; for HillSlope / LogEC50: best-fit value; for Bottom / Span / Top: best-fit value (luminescence)
Experimental: The Clytia MIH amidated peptides are produced from two precursor genes Che-pp4 (generating multiple copies of WPRAamide, WPRYamide, and WPRPamide) and Che-pp1 (multiple copies of WPRPamide and RPRGamide).
Cell culture GPCR ligand response assays were performed as described. Briefly, CHO-K1 cells were cultured in Ham’s F12 Nut Mix medium (Thermo Fisher Scientific) with 10% foetal bovine serum. Cells were seeded in 96-well plates at approximately 10,000 cells/well and transfected the following day with pcDNA3.1(+) plasmids encoding each of the 16 candidate Clytia GPCRs (S2 Text), the promiscuous Gα-16 protein [65], and a reporter construct GFP-apoaequorin [66] (60 ng each) using the transfection reagent TurboFect (Thermo Fisher Scientific). After 2 days of expression, the medium was removed and replaced with Hank’s balanced salt solution (HBSS) supplemented with 1.8 mM Ca2+, 10 mM glucose, and […] coelenterazine h (Promega, Madison, WI). After incubation at 37 °C for 2 hours, cells were tested by adding synthetic peptides (GenScript) in HBSS supplemented with 1.8 mM Ca2^+ and 10 mM glucose. A list of all synthetic peptides used is provided in S2 Table. Luminescence was recorded for 45 seconds in a plate reader (BioTek Synergy Mx or Synergy H4; BioTek, Winooski, VT). Data were integrated over the 45-second measurement period and recorded as technical triplicates in each case. Data were normalized using the response of Platynereis FLamide receptor to 1 μM AKYFL-NH2 [28]. Dose–response curves were obtained using concentrations between 0.01 nM and 100 μM for each peptide. Data for dose–response curves were recorded in triplicate for each concentration and the experiment was repeated independently 3 times. Dose–response curves were fitted with a four-parameter curve using Prism 6 (GraphPad, La Jolla, CA) and were normalized to the calculated upper plateau values (100% activation).
Supplementary file pbio.3000614.s012.xlsx: S2 Data Numerical data corresponding to Fig 1C. The first three tabs show statistical values obtained using Prism 6 software (GraphPad, La Jolla, CA) from the raw luminescence values for 3 independent dose–response experiments. The raw luminescence values are shown, as well as the values normalized with respect to the maximum. […] MIH, maturation-inducing hormone. (XLSX) Click here for additional data file.

[2] = 100 nM WPRPamide or 4 mM Br-cAMP
[3] = WPRPa, pooled n=47, Fisher exact test vs MIHR KO significant at p < .01
[4] = log(agonist) vs. response, variable slope (four parameters), fit of third dataset

SMILES: N=C(N)NCCC[C@H](NC(=O)[C@@H]1CCCN1C(=O)[C@@H](N)Cc1c[nH]c2ccccc12)C(=O)N1CCC[C@H]1C(N)=O [WPRPa] (H-WPRP-NH2; N-terminus assumed)
- Oocyte maturation (number) ([1]; replicate 1, total 13): 13
- Percentage of Oocytes maturing ([1]; replicate 1, total 13): 100.00
- Oocyte maturation (number) ([1]; replicate 2, total 19): 19
- Percentage of Oocytes maturing ([1]; replicate 2, total 19): 100.00
- Oocyte maturation (number) ([1]; replicate 3, total 15.00): 15
- Percentage of Oocytes maturing ([1]; replicate 3, total 15.00): 100.00
- maturation of isolated WT oocytes [1, 2]: triggered maturation of WT oocytes
- time to visible GVBD, isolated WT oocytes [1, 2]: 20 to 30 min
- Maturing oocytes, WT YES [1, 3]: 47
- Non-maturing oocytes, WT NO [1, 3]: 0
- EC50 (Clytia MIHR; dataset/experiment 1): 220 nM
- EC50 (Clytia MIHR; dataset/experiment 2): 928 nM
- HillSlope (Clytia MIHR; first dataset): 1.128
- LogEC50 (Clytia MIHR; first dataset): -6.658
- Bottom (Clytia MIHR; first dataset): 935
- Span (Clytia MIHR; first dataset): 46105
- Top (Clytia MIHR; first dataset): 47040
- Bottom (best-fit value) (Clytia MIHR; [4]): 10.51
- HillSlope (best-fit value) (Clytia MIHR; [4]): 1.078
- LogEC50 (best-fit value) (Clytia MIHR; [4]): -6.286
- Span (best-fit value) (Clytia MIHR; [4]): 89.49
- HillSlope (Clytia MIHR; second dataset): 0.9926
- LogEC50 (Clytia MIHR; second dataset): -6.033
- Bottom (Clytia MIHR; second dataset): 1493
- Span (Clytia MIHR; second dataset): 22106
- Top (Clytia MIHR; second dataset): 23599
